Values of other authors as cited in patent publication US10022348B2, “Topical solution of isotretinoin” (SUN PHARMACEUTICAL INDUSTRIES LIMITED, priority 2009, dated 2018).

Test system: patients with severe acne
Settings: oral

For CC1=C(/C=C/C(C)=C/C=C/C(C)=C\C(=O)O)C(C)(C)CCC1 [isotretinoin, 13-cis retinoic acid], the long-term remission is listed as “about 80 % of patients”.
